Laboratory results published in PubChem BioAssay AID1963829 (Molecular Pharmacology Branch, DTP, NCI, 2024).

Tested on: 935938-334-R-J1-PDC complex spheroid viability
Test: Anticancer human tumor 935938-334-R-J1-PDC patient-derived small intestine adenocarcinoma cell line growth inhibition [POLQ]
Conditions: for IC50: curve of first compound; for viability, T/C: stronger effect = lower value
How it was run: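 Patient-derived tumour cells were co-cultured with HUVEC and mesenchymal stem cells as multicellular spheroids at 37 °C. They were treated with POLQ inhibitors (novobiocin, ART-558, RP6685) alone or combined with other agents. Top concentrations were at or near clinical Cmax (otherwise 10 microM; SN-38 at 1 microM), decreasing in half-log steps.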

[1] = second compound 0.0316 µM, first compound 0.0316 µM
[2] = second compound 0.0316 µM, first compound 0.1 µM
[3] = second compound 0.0316 µM, first compound 0.316 µM
[4] = second compound 0.0316 µM, first compound 1 µM
[5] = second compound 0.0316 µM, first compound 3.16 µM
[6] = second compound 0.0316 µM, first compound 10 µM
[7] = second compound 0.1 µM, first compound 0.0316 µM
[8] = second compound 0.1 µM, first compound 0.1 µM
[9] = second compound 0.1 µM, first compound 0.316 µM
[10] = second compound 0.1 µM, first compound 1 µM
[11] = second compound 0.1 µM, first compound 3.16 µM
[12] = second compound 0.1 µM, first compound 10 µM
[13] = second compound 0.316 µM, first compound 0.0316 µM
[14] = second compound 0.316 µM, first compound 0.1 µM
[15] = second compound 0.316 µM, first compound 0.316 µM
[16] = second compound 0.316 µM, first compound 1 µM
[17] = second compound 0.316 µM, first compound 3.16 µM
[18] = second compound 0.316 µM, first compound 10 µM
[19] = second compound 1 µM, first compound 0.0316 µM
[20] = second compound 1 µM, first compound 0.1 µM
[21] = second compound 1 µM, first compound 0.316 µM
[22] = second compound 1 µM, first compound 1 µM
[23] = second compound 1 µM, first compound 3.16 µM
[24] = second compound 1 µM, first compound 10 µM
[25] = second compound 3.16 µM, first compound 0.0316 µM
[26] = second compound 3.16 µM, first compound 0.1 µM
[27] = second compound 3.16 µM, first compound 0.316 µM
[28] = second compound 3.16 µM, first compound 1 µM
[29] = second compound 3.16 µM, first compound 3.16 µM
[30] = second compound 3.16 µM, first compound 10 µM
[31] = second compound 10 µM, first compound 0.0316 µM
[32] = second compound 10 µM, first compound 0.1 µM
[33] = second compound 10 µM, first compound 0.316 µM
[34] = second compound 10 µM, first compound 1 µM
[35] = second compound 10 µM, first compound 3.16 µM
[36] = second compound 10 µM, first compound 10 µM
[37] = second compound 0.0316 µM, first compound 0.00316 µM
[38] = second compound 0.0316 µM, first compound 0.01 µM
[39] = second compound 0.1 µM, first compound 0.00316 µM
[40] = second compound 0.1 µM, first compound 0.01 µM
[41] = second compound 0.316 µM, first compound 0.00316 µM
[42] = second compound 0.316 µM, first compound 0.01 µM
[43] = second compound 1 µM, first compound 0.00316 µM
[44] = second compound 1 µM, first compound 0.01 µM
[45] = second compound 3.16 µM, first compound 0.00316 µM
[46] = second compound 3.16 µM, first compound 0.01 µM
[47] = second compound 10 µM, first compound 0.00316 µM
[48] = second compound 10 µM, first compound 0.01 µM
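Further: spheroids exposed to drugs for seven days before viability read.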
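Wherever viability, T/C is given: 100% = DMSO vehicle control wells.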

COc1cc(C2c3cc4c(cc3C(OC3OC5COC(C)OC5C(O)C3O)C3COC(=O)C23)OCO4)cc(OC)c1O (stereo not drawn) + Nc1ccc(C#CCN(C(=O)Cc2ncc(C(F)(F)F)cc2C(F)(F)F)c2ccc(F)cc2)nn1
IC50 (second compound 0.0316 µM): 832 nM
IC50 (second compound 0.1 µM): 666 nM
IC50 (second compound 0.316 µM): 762 nM
IC50 (second compound 1 µM): 616 nM
IC50 (second compound 3.16 µM): 597 nM
IC50 (second compound 10 µM): 565 nM
viability, T/C [1]: 95.1%
viability, T/C [2]: 86.1%
viability, T/C [3]: 87.8%
viability, T/C [4]: 42.9%
viability, T/C [5]: 26.8%
viability, T/C [6]: 31.6%
viability, T/C [7]: 99.5%
viability, T/C [8]: 90.8%
viability, T/C [9]: 74.5%
viability, T/C [10]: 35.5%
viability, T/C [11]: 37.5%
viability, T/C [12]: 29.9%
viability, T/C [13]: 108%
viability, T/C [14]: 68.9%
viability, T/C [15]: 69.1%
viability, T/C [16]: 49.6%
viability, T/C [17]: 31.2%
viability, T/C [18]: 30.4%
viability, T/C [19]: 83.3%
viability, T/C [20]: 89.2%
viability, T/C [21]: 60.3%
viability, T/C [22]: 43.9%
viability, T/C [23]: 28%
viability, T/C [24]: 31.7%
viability, T/C [25]: 109%
viability, T/C [26]: 86.7%
viability, T/C [27]: 64.6%
viability, T/C [28]: 37.6%
viability, T/C [29]: 32.7%
viability, T/C [30]: 31.3%
viability, T/C [31]: 110%
viability, T/C [32]: 79.2%
viability, T/C [33]: 64.8%
viability, T/C [34]: 38.4%
viability, T/C [35]: 29%
viability, T/C [36]: 33.7%

CCCS(=O)(=O)Nc1ccc(F)c(C(=O)c2c[nH]c3ncc(-c4ccc(Cl)cc4)cc23)c1F + Nc1ccc(C#CCN(C(=O)Cc2ncc(C(F)(F)F)cc2C(F)(F)F)c2ccc(F)cc2)nn1
IC50 (second compound 0.0316 µM): 9230 nM
IC50 (second compound 0.1 µM): 9610 nM
IC50 (second compound 0.316 µM): > 10000 nM
IC50 (second compound 1 µM): > 10000 nM
IC50 (second compound 3.16 µM): 9370 nM
IC50 (second compound 10 µM): 9980 nM
viability, T/C [1]: 114%
viability, T/C [2]: 112%
viability, T/C [3]: 117%
viability, T/C [4]: 135%
viability, T/C [5]: 113%
viability, T/C [6]: 45%
viability, T/C [7]: 126%
viability, T/C [8]: 138%
viability, T/C [9]: 109%
viability, T/C [10]: 140%
viability, T/C [11]: 131%
viability, T/C [12]: 47.3%
viability, T/C [13]: 118%
viability, T/C [14]: 121%
viability, T/C [15]: 90.9%
viability, T/C [16]: 165%
viability, T/C [17]: 120%
viability, T/C [18]: 50.3%
viability, T/C [19]: 103%
viability, T/C [20]: 97.4%
viability, T/C [21]: 95.1%
viability, T/C [22]: 112%
viability, T/C [23]: 129%
viability, T/C [24]: 63.2%
viability, T/C [25]: 110%
viability, T/C [26]: 121%
viability, T/C [27]: 140%
viability, T/C [28]: 158%
viability, T/C [29]: 121%
viability, T/C [30]: 45.6%
viability, T/C [31]: 104%
viability, T/C [32]: 125%
viability, T/C [33]: 145%
viability, T/C [34]: 174%
viability, T/C [35]: 151%
viability, T/C [36]: 50%

CC[C@@]1(O)C(=O)OCc2c1cc1n(c2=O)Cc2cc3c(CN(C)C)c(O)ccc3nc2-1 + Nc1ccc(C#CCN(C(=O)Cc2ncc(C(F)(F)F)cc2C(F)(F)F)c2ccc(F)cc2)nn1
IC50 (second compound 0.0316 µM): > 100 nM
IC50 (second compound 0.1 µM): > 100 nM
IC50 (second compound 0.316 µM): > 100 nM
IC50 (second compound 1 µM): > 100 nM
IC50 (second compound 3.16 µM): > 100 nM
IC50 (second compound 10 µM): > 100 nM
viability, T/C (second compound 0.0316 µM, first compound 0.000316 µM): 73.9%
viability, T/C (second compound 0.0316 µM, first compound 0.001 µM): 96.8%
viability, T/C [37]: 97.6%
viability, T/C [38]: 91.9%
viability, T/C [1]: 84.3%
viability, T/C [2]: 60.2%
viability, T/C (second compound 0.1 µM, first compound 0.000316 µM): 98.6%
viability, T/C (second compound 0.1 µM, first compound 0.001 µM): 101%
viability, T/C [39]: 113%
viability, T/C [40]: 98.1%
viability, T/C [7]: 96.7%
viability, T/C [8]: 63%
viability, T/C (second compound 0.316 µM, first compound 0.000316 µM): 129%
viability, T/C (second compound 0.316 µM, first compound 0.001 µM): 130%
viability, T/C [41]: 99.2%
viability, T/C [42]: 82.6%
viability, T/C [13]: 87.4%
viability, T/C [14]: 57%
viability, T/C (second compound 1 µM, first compound 0.000316 µM): 132%
viability, T/C (second compound 1 µM, first compound 0.001 µM): 117%
viability, T/C [43]: 77.8%
viability, T/C [44]: 105%
viability, T/C [19]: 86.7%
viability, T/C [20]: 48%
viability, T/C (second compound 3.16 µM, first compound 0.000316 µM): 110%
viability, T/C (second compound 3.16 µM, first compound 0.001 µM): 110%
viability, T/C [45]: 96.9%
viability, T/C [46]: 116%
viability, T/C [25]: 84%
viability, T/C [26]: 65.1%
viability, T/C (second compound 10 µM, first compound 0.000316 µM): 163%
viability, T/C (second compound 10 µM, first compound 0.001 µM): 117%
viability, T/C [47]: 111%
viability, T/C [48]: 72.7%
viability, T/C [31]: 103%
viability, T/C [32]: 48.6%

C=CCn1c(=O)c2cnc(Nc3ccc(N4CCN(C)CC4)cc3)nc2n1-c1cccc(C(C)(C)O)n1 + Nc1ccc(C#CCN(C(=O)Cc2ncc(C(F)(F)F)cc2C(F)(F)F)c2ccc(F)cc2)nn1
IC50 (second compound 0.0316 µM): 534 nM
IC50 (second compound 0.1 µM): 661 nM
IC50 (second compound 0.316 µM): 592 nM
IC50 (second compound 1 µM): 273 nM
IC50 (second compound 3.16 µM): 601 nM
IC50 (second compound 10 µM): 478 nM
viability, T/C [37]: 90.4%
viability, T/C [38]: 93.5%
viability, T/C [1]: 73.8%
viability, T/C [2]: 79.8%
viability, T/C [3]: 77.2%
viability, T/C [4]: 19.1%
viability, T/C [39]: 76.5%
viability, T/C [40]: 81.3%
viability, T/C [7]: 92.6%
viability, T/C [8]: 96.6%
viability, T/C [9]: 89.5%
viability, T/C [10]: 29.1%
viability, T/C [41]: 85.8%
viability, T/C [42]: 70.4%
viability, T/C [13]: 72.1%
viability, T/C [14]: 99.6%
viability, T/C [15]: 77.1%
viability, T/C [16]: 26.2%
viability, T/C [43]: 80%
viability, T/C [44]: 105%
viability, T/C [19]: 82.3%
viability, T/C [20]: 107%
viability, T/C [21]: 43.6%
viability, T/C [22]: 25.4%
viability, T/C [45]: 95.9%
viability, T/C [46]: 79.3%
viability, T/C [25]: 61.8%
viability, T/C [26]: 85.4%
viability, T/C [27]: 88.7%
viability, T/C [28]: 24.3%
viability, T/C [47]: 96.7%
viability, T/C [48]: 82.6%
viability, T/C [31]: 118%
viability, T/C [32]: 81.3%
viability, T/C [33]: 65.4%
viability, T/C [34]: 25.2%
